According to paper PMC4262670 (Macromolecular bioscience, 2014):

Assays:
[1] = test system: A2780 and OVCAR-3 human ovarian cancer cell lines; experiment: Single agent in vitro cytotoxicity, WST-8, result stated over both cell lines; format: cell-based; conditions: A2780 versus OVCAR-3, WST-8
[2] = ref [8]; cited from earlier work
[3] = ref [13]–[15]; cited from earlier work
[4] = cited from earlier work; for water solubility of free drugs: medium with 0.5 % (v/v) DMSO used to prevent precipitation, no reference given
[5] = test system: non-small cell lung carcinoma (NSCLC); conditions: ref [59]; cited from earlier work
[6] = test system: first recurrence of ovarian cancer; conditions: added to carboplatin and gemcitabine; ref [56]; cited from earlier work
[7] = clinical investigation; ref [31]; cited from earlier work

## CC(=O)O[C@@]12CO[C@@H]1C[C@H](O)[C@@]1(C)C(=O)[C@H](O)C3=C(C)[C@@H](OC(=O)[C@H](O)[C@@H](NC(=O)OC(C)(C)C)c4ccccc4)C[C@@](O)([C@@H](OC(=O)c4ccccc4)[C@H]21)C3(C)C [DOC, docetaxel]
[1]
  differences in susceptibility of cell lines: did not indicate overall trends in differences in the susceptibility
[2]
  in vitro cytotoxicity compared to paclitaxel: superior in vitro cytotoxicity
[3]
  cross resistance with paclitaxel: does not demonstrate complete cross resistance with paclitaxel
[4]
  water solubility of free drugs: poor water solubility

## CC(=O)O[C@H]1C(=O)[C@@]2(C)[C@H]([C@H](OC(=O)c3ccccc3)[C@]3(O)C[C@H](OC(=O)[C@H](O)[C@@H](NC(=O)c4ccccc4)c4ccccc4)C(C)=C1C3(C)C)[C@]1(OC(C)=O)CO[C@@H]1C[C@@H]2O [paclitaxel]
[5]
  mean survival time: 6.5 weeks

## bevacizumab: anti-angiogenic monoclonal antibody against VEGF-A, added to carboplatin and gemcitabine
[6]
  disease progression and overall survival: greater reduction in risk of disease progression and an improvement in overall survival

## COC1=C2C[C@@H](C)C[C@H](OC)[C@H](O)[C@@H](C)/C=C(\C)[C@H](OC(N)=O)[C@@H](OC)/C=C\C=C(/C)C(=O)NC(=CC1=O)C2=O [geldanamycin]
[7]
  hepatotoxicity: significant hepatotoxicity

## CO[C@H]1/C=C\C=C(/C)C(=O)NC2=CC(=O)C(NCCCCCCN)=C(C[C@@H](C)C[C@H](OC)[C@H](O)[C@@H](C)/C=C(\C)[C@@H]1OC(N)=O)C2=O [AHGDM, 17-(hexane-1,6-diamine)-17-demethoxygeldanamycin]
[1]
  differences in susceptibility of cell lines: did not indicate overall trends in differences in the susceptibility
[4]
  water solubility of free drugs: poor water solubility

## C=CCNC1=C2C[C@@H](C)C[C@H](OC)[C@H](O)[C@@H](C)/C=C(\C)[C@H](OC(N)=O)[C@@H](OC)/C=C\C=C(/C)C(=O)NC(=CC1=O)C2=O [17-AAG, 17-(allylamino)-17-demethoxygeldanamycin]
[4]; ref [32]
  water solubility, ref 32: poorly water soluble
